Data as given in paper PMC5820647, “Simultaneous Quantification of Gallic Acid, Bergenin, Epicatechin, Epicatechin Gallate, Isoquercitrin, and Quercetin-3-Rhamnoside in Rat Plasma by LC-MS/MS Method and Its Application to Pharmacokinetics after Oral Administration of Ardisia japonica Extract” (Evidence-based Complementary and Alternative Medicine : eCAM, 2018).
Where two headings read alike, the source gives them in different places.

Assays:
[1] = assay type: physicochemical; settings: for Free-throw 3 times Accuracy: 3 cycles freezing at about −20°C and thawing at room temperature; for 24 h stability Accuracy: autosampler, room temperature
Method: The standard stock solutions of gallic acid, bergenin, epicatechin, epicatechin gallate, isoquercitrin, and quercetin-3-rhamnoside were prepared by dissolving each separately in methanol to achieve a concentration of 1 mg mL^−1 for use as the stock solution. The three ISs including ferulic acid, puerarin, and warfarin were prepared using the same procedure as mentioned above with the concentration being 1 μg mL^−1. Calibration standard solutions were prepared by spiking the different concentrations of the standard mixture working solutions into plasma to achieve the concentration range of 2–500 ng mL^−1 for gallic acid; 2–500 ng mL^−1 for bergenin; 4–1000 ng mL^−1 for epicatechin; 2–500 ng mL^−1 for epicatechin gallate; 1–250 ng mL^−1 for isoquercitrin; and 0.4–100 ng mL^−1 for quercetin-3-rhamnoside. The QC samples were prepared by spiking 10 μL of the standard stock solutions into 100 μL of blank plasma to achieve LLOQ, low, medium and high concentrations of 2, 6, 20, and 200 ng mL^−1 for gallic acid; 2, 6, 20, and 200 ng mL^−1 for bergenin; 4, 12, 40, and 400 ng mL^−1 for epicatechin; 2, 6, 20, and 200 ng mL^−1 for epicatechin gallate; 1, 3, 10, and 100 ng mL^−1 for isoquercitrin; and 0.4, 1.2, 4, and 40 ng mL^−1 for quercetin-3-rhamnoside.
The stability for 6 analysis compounds including 24 h stability (keeping the sample in autosampler conditions of room temperature for 24 h), three freeze/thaw cycles (subjected to 3 cycles of freezing at about −20°C and thawing at room temperature), and a long-term stability (stored at about −80°C for 4 weeks) of analytes in plasma was performed by analyzing QC samples at four different concentrations.

[2] = Pharmacokinetic study in rats after oral administration of A. japonica extract (LC-MS/MS of plasma); assay type: in vivo; settings: male, Sprague-Dawley; for Tmax: n = 10; for MRT: read-out: MRT(0–t24 h); for MRT inf: read-out: MRT(0–∞); for Cmax: read-out: peak plasma concentration (Cmax)
Method: The LC-MS/MS system consisted of an Agilent 1200 system coupled with a binary pump (G1312A), an autosampler (G13678), a vacuum degasser (G1322A), and an API 3200 triple quadrupole mass spectrometer with an ESI source. […] The flow rate was set at 300 μL min^−1 and the inject volume was 10 μL.
The analytes were determined in negative mode and quantified by multiple-reaction monitoring (MRM) mode. The source parameters were as follows: curtain gas, 25 psi; collision gas, 12 psi; ion spray voltage, −4500 V; temperature, 500°C; ion source gas 1, 45 psi; and ion source gas 2, 55 psi, respectively. Data acquisition was operated by Analyst 1.4.2 software (AB Sciex).
100 μL of plasma sample, 10 μL of the IS solutions, and 10 μL of 30% formic acid were added to the tube. Samples were vortex-mixed for 1 min, and 400 μL of acetonitrile was then used in precipitating the protein, after which they were centrifuged for 10 min at 14,000 rpm. The supernatant was transferred into another centrifuge tube and evaporated using nitrogen gas to dryness. The dried residue was reconstituted using 100 μL of methanol. The sample was further shaken and ultrasonicated for 2 min to ensure that it was well dissolved. It was subsequently centrifuged at 14,000 rpm for 10 min, and 10 μL aliquot of the solution was injected into the LC-MS/MS system for analysis.
Ten male Sprague-Dawley rats (270–280 g) were kept at the animal center of Tianjin University of Traditional Chinese Medicine (Tianjin, China) under environmentally controlled conditions. […] According to the clinical dose used in human, the rat dose of A. japonicae extracts used was 0.93 g kg^−1. […] After blood sample collection into the heparinized 1.5 mL polythene tubes and centrifugation at 6000 rpm for 10 min, the plasma was transferred into clean tubes and stored in a freezer at −20°C until analysis. The pharmacokinetic parameters were determined using pharmacokinetics program (DAS1.0 Medical College of Wannan, China) and performing a one compartmental analysis.

[3] = rat plasma, LLOQ QC concentration, n = 6
[4] = rat plasma, high QC concentration, n = 6
[5] = rat plasma, low QC concentration, n = 6
[6] = rat plasma, medium QC concentration, n = 6
[7] = rat, plasma, po, 0.93 g/kg, oral A. japonica extract 0.93 g kg^−1, one compartment model, read-out: AUC(0–24 h)
[8] = rat, plasma, po, 0.93 g/kg, oral A. japonica extract 0.93 g kg^−1, read-out: area under the curve (AUC0–24 h)
[9] = rat plasma, oral A. japonica extract 0.93 g kg^−1, one compartment model
[10] = rat plasma, oral A. japonica extract 0.93 g kg^−1
[11] = stored at about −80°C for 4 weeks, rat plasma, LLOQ QC concentration, n = 6
[12] = stored at about −80°C for 4 weeks, rat plasma, high QC concentration, n = 6
[13] = stored at about −80°C for 4 weeks, rat plasma, medium QC concentration, n = 6
[14] = in vivo, rat plasma, oral A. japonica extract 0.93 g kg^−1, one compartment model

Compound	Free-throw 3 times Accuracy [1, 3]	Free-throw 3 times Accuracy [1, 4]	Free-throw 3 times Accuracy [1, 5]	Free-throw 3 times Accuracy [1, 6]	AUC(0-t) [2, 7]	AUC(0-t) [2, 8]	AUC(0-inf) [2, 9]	half-life [2, 9]	Tmax [2, 9]	MRT [2, 9]	MRT inf [2, 9]	Cmax [2, 10]	24 h stability Accuracy ([1]; LLOQ QC concentration, n = 6)	24 h stability Accuracy ([1]; high QC concentration, n = 6)	24 h stability Accuracy ([1]; low QC concentration, n = 6)	24 h stability Accuracy ([1]; medium QC concentration, n = 6)	Long stability (1 month) Accuracy [1, 11]	Long stability (1 month) Accuracy [1, 12]	Long stability (1 month) Accuracy [1, 13]	also measured
O=c1c(O[C@@H]2O[C@H](CO)[C@@H](O)[C@H](O)[C@H]2O)c(-c2ccc(O)c(O)c2)oc2cc(O)cc(O)c12 [Isoquercitrin, isoquercitrin]	105%	91.0%	103%	96.9%																
O=C(O)c1cc(O)c(O)c(O)c1 [Gallic acid, gallic acid]	92.5%	101%	114%	94.0%	194 ± 44 ng·h/mL	194 ± 44 ng·h/mL	200 ± 43.9 ng·h/mL	3.21 ± 4.56 h	1.4 ± 1.13 h	4.5 ± 1.15 h	5.33 ± 1.61 h	35.5 ± 10.2 ng/mL	116%	103%	111%	85.8%	95.6%	92.7%	98.4%	Long stability (1 month) Accuracy ([1]; rat, 4 weeks): 101%
COc1c(O)cc2c(c1O)[C@@H]1O[C@H](CO)[C@@H](O)[C@H](O)[C@H]1OC2=O [Bergeninum, bergenin]	106%	87.3%	104%	94.0%	1740 ± 666 ng·h/mL	1740 ± 666 ng·h/mL	1840 ± 769 ng·h/mL	3.87 ± 1.62 h	0.86 ± 0.52 h	6.04 ± 1.05 h	7.26 ± 2.17 h	288 ± 107 ng/mL								
O=C(O[C@@H]1Cc2c(O)cc(O)cc2O[C@@H]1c1ccc(O)c(O)c1)c1cc(O)c(O)c(O)c1 [Epicatechin gallate, epicatechin gallate]	109%	88.0%	98.4%	91.4%																
Oc1cc(O)c2c(c1)O[C@H](c1ccc(O)c(O)c1)[C@H](O)C2 [Epicatechin, epicatechin]	105%	99.4%	111%	111%																
C[C@@H]1O[C@@H](Oc2c(-c3ccc(O)c(O)c3)oc3cc(O)cc(O)c3c2=O)[C@H](O)[C@H](O)[C@H]1O [Quercetin-3-rhamnoside, quercetin-3-rhamnoside]	115%	85.0%	90.4%	93.3%									93.7%	87.3%	96.3%	93.3%	114%	85.0%	90.6%	AUC(0-inf) [2, 14]: 6.95 ± 20.7 ng·h/mL; half-life [2, 14]: 2.59 ± 2.8 h; Tmax [2, 14]: 0.5 ± 0.6 h; MRT [2, 14]: 5.08 ± 6.36 h; MRT inf [2, 14]: 7.09 ± 19.6 h; AUC(0-t) ([2]; in vivo, rat plasma, oral A. japonica extract 0.93 g kg^−1, read-out: area under the curve (AUC0–24 h)): 6.44 ± 12 ng·h/mL; Cmax ([2]; in vivo, rat plasma, oral A. japonica extract 0.93 g kg^−1): 7.08 ± 8.28 ng/mL; Long stability (1 month) Accuracy ([1]; stored at about −80°C for 4 weeks, rat plasma, low QC concentration, n = 6): 92.2%
